{"source": "patent US6759238B1", "about": "“Multidrug resistance associated proteins and uses thereof” (priority 1999, dated 2004)", "key": {"CEM-SS cells [1]": {"test_system": "CEM-SS cells", "assay": "Cytotoxicity assay (growth inhibition, Coulter counter)", "experimental": "[…] Each result is the mean of one representative experiment performed in duplicate. The cultures with the purine nucleosides adenosine, 2′-deoxyadenosine, and arabinosyladenine contained 5 μM deoxycoformycin to inhibit adenosine deaminase activity.\n(§1) All assays were performed in 24-well tissue culture plates (Costar, Cambridge, Ma.). […] At the end of the incubation, the cell concentrations, sizes, and volumes were counted in a Coulter counter (Coulter Electronics, Hialeah. Fla.)."}, "CEM-r1 cells [2]": {"test_system": "CEM-r1 cells", "assay": "Cytotoxicity assay (growth inhibition, Coulter counter)", "settings": "for Relative Resistance: CEM-r1 vs CEM-SS (Table 3); for Cross-resistance of CEM-r1 cells (in words): relative sensitivity of wild-type and CEM-r1 cells", "experimental": "Selection for PMEA resistance was carried out by exposing CEM-SS cells in culture to increasing concentrations of PMEA, over several months.\nThe IC50 values were obtained after 2 days of culture. Each result is the mean of one representative experiment performed in duplicate. The cultures with the purine nucleosides adenosine, 2′-deoxyadenosine, and arabinosyladenine contained 5 μM deoxycoformycin to inhibit adenosine deaminase activity.\nas §1"}, "CEM-SS cells [3]": {"test_system": "CEM-SS cells", "assay": "Uptake and metabolism of [3H]bispom-PMEA", "settings": "CEM-SS, 1 μM [3H]bispom-PMEA, 15 minutes", "experimental": "(§2) Therefore, the metabolism of [^3H]bispom-PMEA (15), a lipophilic prodrug of PMEA, was analyzed in the two cell lines in order to further examine the mechanism of resistance in the mutant cell line."}, "CEM-r1 cells [4]": {"test_system": "CEM-r1 cells", "assay": "Uptake and metabolism of [3H]bispom-PMEA", "settings": "CEM-r1, 1 μM [3H]bispom-PMEA, 15 minutes", "experimental": "as §2"}, "CEM-r1 cells [5]": {"test_system": "CEM-r1 cells", "assay": "Uptake and metabolism of [3H]PMEA", "settings": "for Intracellular levels: CEM-r1, 10 μM [3H]PMEA; for Intracellular level in CEM-r1 as percent of the wildtype level: CEM-r1 vs CEM-SS", "procedure": "(§3) The mutant and parental cells were incubated with 10 μM [^3H]PMEA and at various times were analyzed for intracellular levels of PMEA and its metabolites by Partisil SAX HPLC. […] The metabolism of [^3H]PMEA was also examined in both cell lines after longer periods (i.e., 8 and 12 hr) of incubation with 10 μM [^3H]PMEA.\n(§4) Exponentially growing cultures were incubated with 10 μM [^3H] PMEA for 8 or 12 hr and the cell extracts were analyzed for PMEA and its metabolites by ion exchange HPLC, as described.\n(§5) Exponentially growing CEM-SS and CEM-r1 cells were harvested by centrifugation, resuspended at 1×10^6 cells/ml in fresh medium in the presence of [^3H]PMEA or [^3H]bispom-PMEA, and incubated at 37° C. At the indicated time points, aliquots of the cells were removed and centrifuged through Nyosil 50 (W. F. Nye, Inc., New Bedford, Ma.) at 13,000×g for 60 seconds at 4° C. When bispom-PMEA was investigated, an aliquot of the cell-free medium was also removed and analyzed by HPLC for determination of extracellular metabolites. The cell pellet was extracted with 70% ice-cold methanol and the aqueous phase was collected and analyzed for intracellular tritiated PMEA or tritiated bispom-PMEA and their metabolites by using HPLC analysis, essentially as described previously (23, 24)."}, "CEM-SS cells [6]": {"test_system": "CEM-SS cells", "assay": "Uptake and metabolism of [3H]PMEA", "settings": "10 μM [3H]PMEA", "procedure": "as §3, §4, §5"}, "CaCo-2 cells": {"test_system": "CaCo-2 cells", "assay": "PMEA transport in transwell culture", "format": "in vitro ADME", "settings": "CaCo-2 transwell", "text": "A transwell culture which is permissive for cellular polarization may be used to measure the compartment to compartment flux of putative substrates. […] In addition, it is possible that expression of MPR4 depending if it is basal or apical (and this may vary by organ cultured) may determine if PMEA or PMEA-like drugs are absorbed."}, "[7]": {"settings": "CEM-SS, 2 days of culture (Table 3)"}, "[8]": {"settings": "CEM-r1, 2 days of culture (Table 3)"}}, "note": "Read-outs that look alike come from different tables or passages of the source."}
{"compound": "Nc1ncnc2c1ncn2C[C@@H](CO)OCP(=O)(O)O", "note": "[HPMPA]", "values": [{"measurement": "IC50", "setting": "CEM-SS cells [1]; [7]", "result": 92, "unit": "µM"}, {"measurement": "IC50", "setting": "CEM-r1 cells [2]; [8]", "result": 1100, "unit": "µM"}, {"measurement": "Relative Resistance", "setting": "CEM-r1 cells [2]", "result": 12}, {"measurement": "Cross-resistance of CEM-r1 cells (in words)", "setting": "CEM-r1 cells [2]", "result": "partial cross-resistance"}]}
{"compound": "NC(=O)NO", "note": "[Hydroxyurea]", "values": [{"measurement": "IC50", "setting": "CEM-SS cells [1]; Homo sapiens, CEM-SS, 48 h", "result": 55, "unit": "µM"}, {"measurement": "Relative Resistance", "setting": "CEM-r1 cells [2]", "result": "˜1"}, {"measurement": "IC50", "setting": "CEM-r1 cells [2]; Homo sapiens, 48 h", "result": 50, "unit": "µM"}]}
{"compound": "CC(C)(C)C(=O)OCOP(=O)([O-])COCCn1cnc2c(N)ncnc21.[Na+]", "note": "[Monopom-PMEA]", "values": [{"measurement": "Metabolite Levels, Cells", "setting": "CEM-SS cells [3]", "result": 4.6, "unit": "µM"}, {"measurement": "Metabolite Levels, Medium", "setting": "CEM-SS cells [3]", "result": 185, "unit": "nM"}, {"measurement": "Metabolite Levels, Cells", "setting": "CEM-r1 cells [4]", "result": 4.1, "unit": "µM"}, {"measurement": "Metabolite Levels, Medium", "setting": "CEM-r1 cells [4]", "result": 166, "unit": "nM"}]}
{"compound": "Nc1nc(N)c2ncn(CCOCP(=O)(O)O)c2n1", "note": "[PMEADAP]", "values": [{"measurement": "IC50", "setting": "CEM-SS cells [1]; Homo sapiens, CEM-SS, 48 h", "result": 2.3, "unit": "µM"}, {"measurement": "Relative Resistance", "setting": "CEM-r1 cells [2]", "result": 533}, {"measurement": "IC50", "setting": "CEM-r1 cells [2]; Homo sapiens, 48 h", "result": 1200, "unit": "µM"}, {"measurement": "Cross-resistance of CEM-r1 cells (in words)", "setting": "CEM-r1 cells [2]", "result": "highly cross-resistant"}]}
{"compound": "Nc1ncnc2c1ncn2CCOCP(=O)(O)OP(=O)(O)O", "note": "[PMEAp]", "values": [{"measurement": "Intracellular levels", "setting": "CEM-r1 cells [5]; 8 hr", "result": 0.005, "unit": "µM"}, {"measurement": "Intracellular levels", "setting": "CEM-r1 cells [5]; 12 hr", "result": 0.005, "unit": "µM"}, {"measurement": "Intracellular level in CEM-r1 as percent of the wildtype level", "setting": "CEM-r1 cells [5]; 8 hr", "result": "(3.8%)"}, {"measurement": "Intracellular levels", "setting": "CEM-SS cells [6]; 8 hr", "result": 0.13, "unit": "µM"}, {"measurement": "Intracellular levels", "setting": "CEM-SS cells [6]; 12 hr", "result": 0.23, "unit": "µM"}]}
{"compound": "Nc1ncnc2c1ncn2CCOCP(=O)(O)OP(=O)(O)OP(=O)(O)O", "note": "[PMEApp]", "values": [{"measurement": "Intracellular levels", "setting": "CEM-r1 cells [5]; 8 hr", "result": 0.008, "unit": "µM"}, {"measurement": "Intracellular levels", "setting": "CEM-r1 cells [5]; 12 hr", "result": 0.01, "unit": "µM"}, {"measurement": "Intracellular level in CEM-r1 as percent of the wildtype level", "setting": "CEM-r1 cells [5]; 8 hr", "result": "(3.6%)"}, {"measurement": "Intracellular levels", "setting": "CEM-SS cells [6]; 8 hr", "result": 0.22, "unit": "µM"}, {"measurement": "Intracellular levels", "setting": "CEM-SS cells [6]; 12 hr", "result": 0.41, "unit": "µM"}]}
{"compound": "Nc1nc2c(ncn2CCOCP(=O)(O)O)c(=O)[nH]1", "note": "[PMEG, 9-(2-phosphonylmethoxyethyl)guanine]", "values": [{"measurement": "IC50", "setting": "CEM-SS cells [1]; [7]", "result": 0.7, "unit": "µM"}, {"measurement": "IC50", "setting": "CEM-SS cells [1]; read-out: Cytotoxicity IC50, WT (CEM-SS) cells (Table 5)", "result": 5, "unit": "µM"}, {"measurement": "IC50", "setting": "CEM-r1 cells [2]; [8]", "result": 19, "unit": "µM"}, {"measurement": "IC50", "setting": "CEM-r1 cells [2]; read-out: Cytotoxicity IC50, CEM-r1 cells (Table 5)", "result": 200, "unit": "µM"}, {"measurement": "Cross-resistance of CEM-r1 cells (in words)", "setting": "CEM-r1 cells [2]", "result": "partial cross-resistance"}]}
{"compound": "CC[C@]1(O)C[C@@H]2CN(CCc3c([nH]c4ccccc34)[C@@](C(=O)OC)(c3cc4c(cc3OC)N(C)[C@H]3[C@@](O)(C(=O)OC)[C@H](OC(C)=O)[C@]5(CC)C=CCN6CC[C@]43[C@@H]65)C2)C1", "note": "[Vinblastine]", "values": [{"measurement": "IC50", "setting": "CEM-SS cells [1]; Homo sapiens, CEM-SS, 48 h", "result": 0.0018, "unit": "µM"}, {"measurement": "Relative Resistance", "setting": "CEM-r1 cells [2]", "result": "˜1"}, {"measurement": "IC50", "setting": "CEM-r1 cells [2]; Homo sapiens, 48 h", "result": 0.0021, "unit": "µM"}, {"measurement": "Cross-resistance of CEM-r1 cells (in words)", "setting": "CEM-r1 cells [2]", "result": "not resistant"}]}
{"compound": "prostaglandin A", "values": [{"measurement": "Effect on apical to basal transport of PMEA", "setting": "CaCo-2 cells", "result": "specifically inhibits"}, {"measurement": "Effect on basal to apical flux of PMEA", "setting": "CaCo-2 cells", "result": "no effect"}]}
